19 compounds from ChEMBL document CHEMBL3045537, “Synthesis of 2-(aryl)-5-(arylidene)-4-thiazolidinone derivatives with potential analgesic and anti-inflammatory activity” (2012) can be followed below.

Assay type in all cases: functional
For assay [1], the system named is Rattus norvegicus. Briefly: Anti-inflammatory activity inRattus norvegicus albino (rat) assessed as reduction of carrageenan-induced paw edema at 10 mg/kg, po administered 1 hr prior challenge measured after 4 hr post challenge by plethismometer. Also on record: scale not given: the % may be the effect or the level left.
Assay [2] deals with Rattus norvegicus. Nature of the assay: Anti-inflammatory activity inRattus norvegicus albino (rat) assessed as reduction of carrageenan-induced paw edema at 10 mg/kg, po administered 1 hr prior challenge measured after 2 hr post challenge by plethismometer. Details: scale not given: the % may be the effect or the level left. For orientation: The carrageenan paw model is a standard test of acute inflammation.

A further assay concerns Mus musculus. Nature of the assay: Analgesic activity in Mus musculus (mouse) assessed as protection against acetic acid-induced writhing at 10 mg/kg, po administered 30 min prior challenge measured for 20 min.

In the case of `O=C(NN1C(=O)/C(=C/c2ccc(Cl)cc2)SC1c1cccc([N+](=O)[O-])c1)c1ccc(-c2ccccc2)cc1` (configuration not stated), the Activity with Rattus norvegicus [1] came out at 49.23%; with Rattus norvegicus [2], 39.94%; with Mus musculus, 46.25%.

For `O=C(NN1C(=O)/C(=C/c2ccc(Cl)cc2)SC1c1ccc(Cl)cc1)c1ccc(-c2ccccc2)cc1` (configuration not stated), the Activity with Rattus norvegicus [1] turned out to be 55.34%; in the assay on Rattus norvegicus [2], 46.14%; in the assay with Mus musculus, 22.93%.

For `COc1ccc(/C=C2\SC(c3ccc(OC)cc3)N(NC(=O)c3ccc(-c4ccccc4)cc3)C2=O)cc1` (configuration not stated), the figures for the Activity in the assay on Rattus norvegicus [1], in the assay on Rattus norvegicus [2] and in the assay with Mus musculus were 70.28%, 49.54% and 40.43%, respectively.

Turning to `O=C(NN1C(=O)/C(=C/c2cccc(Br)c2)SC1c1ccc(Cl)cc1)c1ccc(-c2ccccc2)cc1` (configuration not stated), the Activity came to 54.8% in the assay on Rattus norvegicus [1], 44.56% with Rattus norvegicus [2] and 17.93% with Mus musculus.

With `O=C(NN1C(=O)/C(=C/c2cccc(Br)c2)SC1c1cccc([N+](=O)[O-])c1)c1ccc(-c2ccccc2)cc1` (configuration not stated), the figures for the Activity in the assay with Rattus norvegicus [1], with Rattus norvegicus [2] and with Mus musculus were 50.78%, 38.7% and 37.5%, respectively.

Regarding `O=C(NN1C(=O)/C(=C/c2cccc([N+](=O)[O-])c2)SC1c1cccc([N+](=O)[O-])c1)c1ccc(-c2ccccc2)cc1` (configuration not stated), the Activity in the assay on Rattus norvegicus [1] worked out at 51.37%; with Rattus norvegicus [2], 39.63%; with Mus musculus, 43.35%.

Turning to `O=C(NN1C(=O)/C(=C/c2cccc([N+](=O)[O-])c2)SC1c1ccc(Cl)cc1)c1ccc(-c2ccccc2)cc1` (configuration not stated), the Activity with Rattus norvegicus [1] came to 56.35%; with Rattus norvegicus [2], 45.21%; with Mus musculus it was 27.5%.

Consider `O=C(NN1C(=O)/C(=C/c2ccccc2)SC1c1ccc(Cl)cc1)c1ccc(-c2ccccc2)cc1` (configuration not stated), for which the values for the Activity in the assay on Rattus norvegicus [1], in the assay with Rattus norvegicus [2] and with Mus musculus were 55.11%, 48.92% and 20.43%, respectively.

`O=C(NN1C(=O)/C(=C/c2cccc(Br)c2)SC1c1ccc(F)cc1)c1ccc(-c2ccccc2)cc1` (configuration not stated): the Activity in the assay with Rattus norvegicus [1] came to 52.08%; with Rattus norvegicus [2], 41.76%; in the assay on Mus musculus it was 37.5%.

As for `COc1ccc(C2S/C(=C\c3cccc([N+](=O)[O-])c3)C(=O)N2NC(=O)c2ccc(-c3ccccc3)cc2)cc1` (configuration not stated), the Activity is on record as 71.21% in the assay on Rattus norvegicus [1], 47.68% with Rattus norvegicus [2] and 36.25% with Mus musculus.

With `O=C([O-])Cc1ccccc1Nc1c(Cl)cccc1Cl.[Na+]` [DICLOFENAC SODIUM], the results for the Activity with Rattus norvegicus [1], in the assay on Rattus norvegicus [2] and with Mus musculus were 79.26%, 54.18% and 68.5%, respectively.

Take `COc1ccc(/C=C2\SC(c3ccc(Cl)cc3)N(NC(=O)c3ccc(-c4ccccc4)cc3)C2=O)cc1` (configuration not stated): the Activity in the assay with Rattus norvegicus [1] stood at 53.87%; in the assay on Rattus norvegicus [2] it was 45.83%; in the assay with Mus musculus it was 29.6%.

Regarding `COc1ccc(C2S/C(=C\c3ccc(Cl)cc3)C(=O)N2NC(=O)c2ccc(-c3ccccc3)cc2)cc1` (configuration not stated), the results for the Activity in the assay with Rattus norvegicus [1], with Rattus norvegicus [2] and in the assay with Mus musculus were 71.83%, 57.9% and 32.1%, respectively.

With `COc1ccc(C2S/C(=C\c3cccc(Br)c3)C(=O)N2NC(=O)c2ccc(-c3ccccc3)cc2)cc1` (configuration not stated), the Activity was found to be 69.05% in the assay on Rattus norvegicus [1], 46.75% in the assay with Rattus norvegicus [2] and 33.35% with Mus musculus.

With `O=C(NN1C(=O)/C(=C/c2ccccc2)SC1c1cccc([N+](=O)[O-])c1)c1ccc(-c2ccccc2)cc1` (configuration not stated), the Activity in the assay on Rattus norvegicus [1] worked out at 47.99%; with Rattus norvegicus [2], 38.09%; in the assay with Mus musculus, 40.85%.

Take `COc1ccc(C2S/C(=C\c3ccccc3)C(=O)N2NC(=O)c2ccc(-c3ccccc3)cc2)cc1` (configuration not stated): the Activity in the assay with Rattus norvegicus [1] stood at 68.74%; in the assay on Rattus norvegicus [2], 45.83%; with Mus musculus, 38.35%.

Take `COc1ccc(/C=C2\SC(c3ccc(F)cc3)N(NC(=O)c3ccc(-c4ccccc4)cc3)C2=O)cc1` (configuration not stated): the Activity is given as 53.62% in the assay with Rattus norvegicus [1], 45.82% in the assay with Rattus norvegicus [2] and 37.93% with Mus musculus.

Regarding `O=C(NN1C(=O)/C(=C/c2ccc(Cl)cc2)SC1c1ccc(F)cc1)c1ccc(-c2ccccc2)cc1` (configuration not stated), the Activity in the assay with Rattus norvegicus [1] came out at 52.92%; in the assay on Rattus norvegicus [2], 43.64%; with Mus musculus it was 46.25%.

With `COc1ccc(/C=C2\SC(c3cccc([N+](=O)[O-])c3)N(NC(=O)c3ccc(-c4ccccc4)cc3)C2=O)cc1` (configuration not stated), the Activity with Rattus norvegicus [1] is given as 48.92%; in the assay on Rattus norvegicus [2], 37.78%; with Mus musculus, 37.93%.
